Literature values as cited in US20120136048A1, “TOPICAL, PERIOCULAR, OR INTRAOCULAR USE OF TOCOTRIENOLS FOR THE TREATMENT OF OPHTHALMIC DISEASES” (priority 2009, published 2012).

Details: rat ocular tissues, every tissue to which it was administered

SMILES | concentration in ocular tissues after topical ophthalmic administration
CC(C)=CCC/C(C)=C/CC/C(C)=C/CC[C@]1(C)CCc2c(C)c(O)c(C)c(C)c2O1 [alpha-tocotrienol, Alpha-Tocotrienol] | increased markedly
Cc1c(C)c2c(c(C)c1O)CC[C@@](C)(CCC[C@H](C)CCC[C@H](C)CCCC(C)C)O2 [alpha-tocopherol] | no significant increase
